In brackets after ≈: the same amount, converted by molar mass.
How the values were obtained:
[1] = Kinetic solubility of the compound at pH 2; format: physicochemical; conditions: buffer, read-out: Kinetic_solubility
[2] = Kinetic solubility of the compound at pH 7.4; format: physicochemical; conditions: buffer, read-out: Kinetic_solubility
[3] = Metabolic stability in human liver microsomes assessed as intrinsic clearance; format: ADME, Microsome; conditions: read-out: CLH
[4] = Metabolic stability in mouse liver microsomes assessed as intrinsic clearance; format: ADME, Microsome; conditions: read-out: CLH
[5] = AUCinfinity in CD1 mouse at 10 mg/kg, po measured upto 24 hrs; format: ADME, organism-based; set-up: route oral, dose 10 mg/kg, time <=24; conditions: in vivo
[6] = Unbound intrinsic clearance in CD1 mouse plasma at 0.3 mg/kg, iv measured upto 8 hrs; format: ADME, organism-based; conditions: in vivo
[7] = Oral bioavailability in CD1 mouse at 10 mg/kg measured upto 24 hrs; format: ADME, organism-based; conditions: in vivo
[8] = Half life in CD1 mouse plasma at 0.3 mg/kg, iv measured upto 8 hrs; format: ADME, organism-based

SMILES: CN(C)c1noc(-c2cccc(CNc3ccc4[nH]nc(C(=O)O)c4c3)c2)n1
- solubility kinetic [1]: 308 µM (≈ 117 µg/mL)
- solubility kinetic [2]: 255 µM (≈ 96.5 µg/mL)
- CLint scaled [3]: 0.5 mL/min/kg
- CLint scaled [4]: 2.9 mL/min/kg

SMILES: Cc1nc(-c2cccc(CN(C)c3ccc4[nH]nc(C(=O)O)c4c3)c2)sc1C
- solubility kinetic [1]: 276 µM (≈ 108 µg/mL)
- solubility kinetic [2]: 254 µM (≈ 99.7 µg/mL)
- CLint scaled [4]: 45 mL/min/kg

SMILES: CN(C)c1noc(-c2cccc(CNc3cnc4nn[nH]c4c3)c2O)n1
- solubility kinetic [1]: 0.53 µM (≈ 0.187 µg/mL)
- solubility kinetic [2]: 0.59 µM (≈ 0.208 µg/mL)
- CLint scaled [3]: 55.5 mL/min/kg
- CLint scaled [4]: 1210 mL/min/kg

SMILES: CC(C)c1noc(-c2cccc(CNc3ccc4[nH]nc(C(=O)O)c4c3)c2O)n1
- AUC(0-inf) [5]: 0.46 µM·h
- CL free [6]: 5436 mL/min/kg
- bioavailability [7]: 2%
- solubility kinetic [1]: 11 µM (≈ 4.33 µg/mL)
- solubility kinetic [2]: 227 µM (≈ 89.3 µg/mL)
- half-life [8]: 0.4 h
- CLint scaled [3]: 2.4 mL/min/kg
- CLint scaled [4]: 38.1 mL/min/kg

SMILES: CC(C)c1csc(-c2cccc(CNc3ccc4[nH]nc(C(=O)O)c4c3)c2O)n1
- solubility kinetic [1]: 97 µM (≈ 39.6 µg/mL)
- solubility kinetic [2]: 102 µM (≈ 41.7 µg/mL)
- CLint scaled [3]: 10 mL/min/kg
- CLint scaled [4]: 8 mL/min/kg

SMILES: CC(C)c1coc(-c2cccc(CNc3ccc4[nH]nc(C(=O)O)c4c3)c2O)n1
- solubility kinetic [1]: 4 µM (≈ 1.57 µg/mL)
- solubility kinetic [2]: 229 µM (≈ 89.9 µg/mL)
- CLint scaled [4]: 84 mL/min/kg

SMILES: CN(C)c1noc(-c2cccc(CNc3ccc4[nH]nc(C(=O)O)c4c3)c2Cl)n1
- solubility kinetic [1]: 7 µM (≈ 2.89 µg/mL)
- solubility kinetic [2]: 296 µM (≈ 122 µg/mL)
- CLint scaled [3]: 5.8 mL/min/kg
- CLint scaled [4]: 12 mL/min/kg

SMILES: CN(C)c1noc(-c2cccc(CNc3ccc4[nH]nc(C(=O)O)c4c3)c2O)n1
- AUC(0-inf) [5]: 11.2 µM·h
- CL free [6]: 447 mL/min/kg
- bioavailability [7]: 6%
- solubility kinetic [1]: 0.4 µM (≈ 0.158 µg/mL)
- solubility kinetic [2]: 157 µM (≈ 61.9 µg/mL)
- half-life [8]: 1.8 h
- CLint scaled [3]: 6.9 mL/min/kg
- CLint scaled [4]: 28.6 mL/min/kg

SMILES: Cc1csc(-c2cccc(CNc3ccc4[nH]nc(C(=O)O)c4c3)c2O)n1
- solubility kinetic [1]: 5 µM (≈ 1.9 µg/mL)
- solubility kinetic [2]: 44 µM (≈ 16.7 µg/mL)
- CLint scaled [4]: 34 mL/min/kg

SMILES: Cc1nc(-c2cccc(CNc3ccc4[nH]nc(C(=O)O)c4c3)c2O)sc1C
- AUC(0-inf) [5]: 46.1 µM·h
- CL free [6]: 4500 mL/min/kg
- bioavailability [7]: 19%
- solubility kinetic [1]: 20 µM (≈ 7.89 µg/mL)
- solubility kinetic [2]: 15 µM (≈ 5.92 µg/mL)
- half-life [8]: 3.3 h
- CLint scaled [3]: 21 mL/min/kg
- CLint scaled [4]: 15 mL/min/kg

SMILES: CC(C)c1csc(-c2cccc(CN(C)c3ccc4[nH]nc(C(=O)O)c4c3)c2O)n1
- solubility kinetic [1]: 175 µM (≈ 73.9 µg/mL)
- solubility kinetic [2]: 6 µM (≈ 2.54 µg/mL)
- CLint scaled [4]: 13 mL/min/kg

SMILES: CN(C)c1noc(-c2cccc(CN(C)c3ccc4[nH]nc(C(=O)O)c4c3)c2O)n1
- AUC(0-inf) [5]: 6.8 µM·h
- CL free [6]: 2444 mL/min/kg
- bioavailability [7]: 4%
- solubility kinetic [1]: 16 µM (≈ 6.53 µg/mL)
- solubility kinetic [2]: 135 µM (≈ 55.1 µg/mL)
- half-life [8]: 3.3 h
- CLint scaled [3]: 14 mL/min/kg
- CLint scaled [4]: 46 mL/min/kg

From ChEMBL document CHEMBL5036313, “Discovery of Novel, Potent Inhibitors of Hydroxy Acid Oxidase 1 (HAO1) Using DNA-Encoded Chemical Library Screening” (J Med Chem, 2021)
